Results from ChEMBL document CHEMBL1201862, “PubChem BioAssay data set” (2004).
Calls of active or inactive are those of the source.

Key:
[1] = target: Voltage-gated inwardly rectifying potassium channel KCNH2 (Homo sapiens, UniProt Q12809); conditions: Potency;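 also: confirmatory quantitative high-throughput screen measuring inhibition of hERG channel activity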
Jurkat [2] = assay: antigen receptor-induced NF-kB inhibitors, dose response, Jurkat, luciferase reporter, luminescence, B- and T-cell (AID 489004); type: functional, cell-based; conditions: Homo sapiens;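 also: NF-kB luciferase reporter Jurkat cells stimulated with PMA plus ionomycin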
[3] = cytotoxicity in HEK-293T NF-kB-Luc cells, dose response, cytotoxicity control for B/T-cell NF-kB inhibitor project, cell-based, uHTS hits (AID 489019); type: functional;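 also: IC50 reflects cytotoxicity as loss of cell viability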
NS3 = NS3 (Hepatitis C virus, UniProt A3EZJ3); assay: PubChem AID 2173; parameters: species or system Hepacivirus hominis
[4] = Late-stage probe development counterscreen for inhibitors of the Hepatitis C Virus non-structural protein 3 helicase (NS3): luminescence-based cell-based dose response assay to determine whether compounds that inhibit replication of HCV RNA replicon are cytotoxic. [Related pubchem assays (depositor defined):AID1800, AID1830, AID1845, AID1943, AID1945, AID2172, AID2173, AID2474, AID2476]; type: functional
CAAX prenyl protease 2 [5] = target: T1, CAAX prenyl protease 2 (Homo sapiens, UniProt Q9Y256); assay: human Rce1 protease inhibitors, dose response, biochemical, plate reader, dry powder samples (AID 588848)
CAAX prenyl protease 2 [6] = target: T2, CAAX prenyl protease 2 (Saccharomyces cerevisiae S288c, UniProt Q03530); assay: yeast Rce1 CaaX protease inhibitors, dose response, biochemical, plate reader, dry powder retest (AID 588851)
T2 sequence (Q03530 whole entry): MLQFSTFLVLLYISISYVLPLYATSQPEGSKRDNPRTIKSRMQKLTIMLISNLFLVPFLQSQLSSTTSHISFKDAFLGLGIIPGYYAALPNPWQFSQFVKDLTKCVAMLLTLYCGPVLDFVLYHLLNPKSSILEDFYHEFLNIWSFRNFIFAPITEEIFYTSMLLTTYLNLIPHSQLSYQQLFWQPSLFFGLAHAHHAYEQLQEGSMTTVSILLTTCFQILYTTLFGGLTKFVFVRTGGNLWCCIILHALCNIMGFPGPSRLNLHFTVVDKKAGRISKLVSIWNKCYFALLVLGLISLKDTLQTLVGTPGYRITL

Cysteine protease ATG4B = Cysteine protease ATG4B (Homo sapiens, UniProt Q9Y4P1); type: functional;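 also: Fluorescence-based dose-response confirmation assay measuring inhibition of ATG4B activity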
Phospholipase A2 = Phospholipase A2 (Homo sapiens, UniProt P04054); type: functional;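 also: confirmatory dose-response counterscreen on phospholipase A2, testing hits that came from an ultra-high-throughput screen for ATG4B inhibitors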
Candida albicans [7] = assay: growth inhibition of resistant C. albicans, dose response, CaCi-8 strain, fluconazole, dry powder, set 4 (AID 488950); type: functional, organism-based
Candida albicans [8] = assay: fluconazole resistance reversal in C. albicans, dose response, CaCi-2 strain, Alamar Blue, dry powder, set 4 (AID 488943); type: functional, organism-based
Candida albicans [9] = assay: growth inhibition of resistant C. albicans, dose response, CaCi-8, fluconazole, Alamar Blue, dry powder (AID 488807); type: functional, organism-based
NIH3T3 = assay: cytotoxicity in NIH-3T3 fibroblasts, dose response, cytotoxicity control for antifungal drug resistance project, cell-based, Alamar Blue, fluconazole, dry powder (AID 488809); type: functional; conditions: Mus musculus
CAAX prenyl protease 2 [10] = target: T2, CAAX prenyl protease 2; type: biochemical
CAAX prenyl protease 2 [11] = target: T1, CAAX prenyl protease 2; assay: human Rce1 protease inhibitors, dose response, biochemical, yeast membranes, quenched-peptide fluorescence, cherry-pick (AID 588849)
[12] = target: Transitional endoplasmic reticulum ATPase (Homo sapiens, UniProt P55072, C522A); assay: C522A mutant p97 ATPase inhibitors, dose response, counter-screen for p97 inhibitor project, biochemical, luminescence (AID 1544)
[13] = target: Transitional endoplasmic reticulum ATPase (Homo sapiens, UniProt P55072); assay: p97 ATPase inhibitors, dose response, biochemical (AID 1534)
[14] = target: Glucose-6-phosphate 1-dehydrogenase (Homo sapiens, UniProt P11413); assay: human G6PD enzyme inhibitors, dose response, selectivity assay for P. falciparum G6PD inhibitor project, biochemical, fluorescence (AID 504792); type: functional
Beta-arrestin-1 = Beta-arrestin-1 (Homo sapiens, UniProt P49407); assay: inhibitors of arrestin peptide binding to AP2, dose response, biochemical, cherry pick 1, beta2-adaptin appendage, flow cytometry (AID 588783); type: functional
Genome polyprotein = Genome polyprotein (dengue virus type 2, UniProt P29990); assay: Dengue-2 NS5 methyltransferase inhibitors, primary screen, biochemical, confirmation dose response (AID 588689); type: functional
[15] = target: T3, Polyadenylate-binding protein 1 (Homo sapiens, UniProt P11940); assay: PABP1 MLLE–PAM2 interaction inhibitors, dose response, miRNA deadenylation inhibitor project, biochemical, fluorescence polarization, Cy5-PAM2 peptide, secondary (AID 602260); type: functional; conditions: read-out: IC50_Mean
[16] = target: T3, Polyadenylate-binding protein 1; assay: PABP1 MLLE–PAM2 binding inhibitor potency, dose response, biochemical, fluorescence polarization, FITC-PAM2 peptide (AID 602259); type: functional; conditions: read-out: IC50_Mean
Caspase-6 = target: T4, Caspase-6 (Homo sapiens, UniProt P55212); assay: human caspase-6 inhibitors, dose response, biochemical, VEID-R110 fluorescence, cherry-pick (AID 720632)
T4 sequence (P55212 whole entry): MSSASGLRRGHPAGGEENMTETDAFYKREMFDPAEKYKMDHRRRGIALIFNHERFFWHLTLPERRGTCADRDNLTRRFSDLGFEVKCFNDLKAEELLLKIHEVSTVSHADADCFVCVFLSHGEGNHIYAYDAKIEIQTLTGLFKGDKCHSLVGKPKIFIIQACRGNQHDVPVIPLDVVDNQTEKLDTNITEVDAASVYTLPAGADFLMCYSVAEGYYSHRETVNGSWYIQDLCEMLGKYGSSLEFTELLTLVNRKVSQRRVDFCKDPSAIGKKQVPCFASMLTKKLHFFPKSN

[17] = NIH-3T3 fibroblast cytotoxicity, dose response, cytotoxicity control, cell-based, fluorescence, Alamar Blue, secondary assay (AID 2327); type: functional;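 also: NIH-3T3 mouse fibroblasts cultured with fluconazole at 8 µg/mL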
[18] = system: Streptococcus sp. 'group A'; assay: growth inhibition of control SK(-) GAS strain, dose response, counter-screen for streptokinase expression inhibitor project, luminescence, kanamycin, BacTiterGlo, confirmation (AID 1900); type: functional, organism-based
cells [19] = type: functional, cell-based
[20] = C. albicans growth with fluconazole, confirmation, fluorescence, retest (AID 2467); type: functional, cell-based
[21] = inhibitors of intracellular T. cruzi replication, confirmation, NIH3T3 host cells, beta-gal luminescence (AID 2044); type: functional, cell-based;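 also: intracellular parasites grown in NIH/3T3 mouse fibroblasts as host cells; luminescent beta-galactosidase reporter signal from transgenic T. cruzi replicating inside host cells; inhibitors lower the luminescence signal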
cells [22] = type: functional, cell-based; remark: listed apart in the source
[23] = target: Serine/threonine-protein phosphatase (Candida dubliniensis (strain CD36 / CBS 7987 / NCPF 3949 / NRRLY-17841) (Yeast), UniProt B9W6M3); assay: calcineurin pathway inhibitors in yeast reporter, dose response, S. cerevisiae, CDRE-lacZ, luminescence, secondary (AID 2388); type: functional, cell-based;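 also: yeast reporter cells carrying a calcineurin-responsive lacZ construct stimulated with calcium chloride; luminescent beta-galactosidase reporter signal in whole cells rather than isolated phosphatase activity; potency for inhibition where a drop in reporter signal means calcineurin blockade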
[24] = cytotoxicity toward NIH3T3 fibroblasts, dose response, counter-screen, cell-based, ATP luminescence, mouse fibroblasts (AID 2010); type: functional;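 also: cells exposed to compound for about 90 hours before reading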
Streptococcus = assay: Group A Streptococcus viability loss, dose response, counter-screen for streptokinase expression inhibitor project, luminescence, BacTiterGlo (AID 1915); type: functional, organism-based;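 also: potency for reduction of bacterial viability or growth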
[25] = cytotoxicity in HEK-293T cells, dose response, cytotoxicity control for TCR NF-kB inhibitor project, luminescence, T-cell screen hits (AID 489026); type: functional, cell-based;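 also: cells exposed to compound about 14 hours before the viability readout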
HEK293 [26] = assay: inhibitors of LMP1-driven NF-kB reporter, dose response, cell-based, HEK293, luciferase, cherry-pick (AID 588343); type: functional; conditions: Homo sapiens
HEK293 [27] = assay: cytotoxicity in HEK293T NF-kB-Luc cells, SAR follow-up, cytotoxicity control for NF-kB activator project, cell-based, resazurin fluorescence (AID 493251); type: functional; conditions: Homo sapiens
Jurkat [28] = assay: SAR Analysis of small molecule inhibitors of T-cell specific antigen receptor-induced NF-kB activation in a Jurkat cell line using a luminescence assay - Set 2. [Related pubchem assays (depositor defined):AID435003, AID435012, AID465]; type: functional, cell-based; conditions: Homo sapiens
HEK293 [29] = assay: SAR Analysis of small molecule inhibitors of T-cell specific antigen receptor-induced NF-kB activation in a HEK-293T cell line using a luminescence assay - Set 2. [Related pubchem assays (depositor defined):AID435003, AID435012, AID489026]; type: functional, cell-based; conditions: Homo sapiens
INS1 = assay: beta cell apoptosis inhibitors, cytokine rescue, dose response, luminescence, retest (AID 449756); type: functional, cell-based; conditions: Rattus norvegicus;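 also: cell death triggered by IL-1 beta plus TNF-alpha plus IFN-gamma mixture; protective hits raise ATP signal compared with cytokine alone wells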
[30] = target: ATP-dependent molecular chaperone HSP82 (Candida albicans (strain WO-1) (Yeast), UniProt C4YTQ8); assay: loss of DOC-induced GRE-beta-galactosidase reporter signal, dose response, Hsp90 inhibitor project, S. cerevisiae, luminescence (AID 2400); type: functional, cell-based;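 also: beta-galactosidase luminescence from glucocorticoid response element reporter as proxy for Hsp90 function; inhibitor potency where signal loss means Hsp90 inhibition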
[31] = Shn3 3'UTR reporter inhibitors, dose response, cell-based, Clone20 osteoblasts, firefly luciferase, cherry-picked (AID 624132); type: functional;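 also: firefly luciferase luminescence from reporter carrying the Shn3 3'UTR in osteoblasts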
[32] = HepG2 cell cytotoxicity, dose response, cytotoxicity control for Shn3 inhibitor project, CellTiter-Glo, cherry-picked (AID 624134); type: functional, cell-based
[33] = control 3'UTR Renilla luciferase suppression, dose response, counter-screen for Shn3 inhibitor project, cell-based, Clone20-Shn3RL, cherry-picked (AID 624133); type: functional
HEK293 [34] = assay: cells; type: functional, cell-based; conditions: Homo sapiens
[35] = target: Nuclear receptor subfamily 0 group B member 1 (Homo sapiens, UniProt P51843); assay: Luminescence-based cell-based high throughput dose response assay for inhibitors of the orphan nuclear receptor subfamily 0, group B, member 1 (DAX1; NR0B1). [Related pubchem assays (depositor defined):AID504766, AID504790]; type: functional
Sequence of Nuclear receptor subfamily 0 group B member 1 (P51843 whole entry): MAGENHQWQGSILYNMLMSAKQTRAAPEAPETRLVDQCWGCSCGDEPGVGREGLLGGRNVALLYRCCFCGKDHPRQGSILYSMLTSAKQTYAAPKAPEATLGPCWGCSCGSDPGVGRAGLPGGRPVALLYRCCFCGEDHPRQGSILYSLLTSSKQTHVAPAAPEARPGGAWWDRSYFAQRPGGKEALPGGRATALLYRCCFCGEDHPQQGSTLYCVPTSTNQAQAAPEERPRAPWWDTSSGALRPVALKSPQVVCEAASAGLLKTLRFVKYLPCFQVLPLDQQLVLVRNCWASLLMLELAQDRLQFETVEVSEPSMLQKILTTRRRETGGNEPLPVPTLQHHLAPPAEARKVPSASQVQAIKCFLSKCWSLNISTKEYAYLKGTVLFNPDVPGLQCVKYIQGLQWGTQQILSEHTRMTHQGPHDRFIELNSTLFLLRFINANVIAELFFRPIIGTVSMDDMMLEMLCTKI

T1 sequence (Q9Y256 whole entry): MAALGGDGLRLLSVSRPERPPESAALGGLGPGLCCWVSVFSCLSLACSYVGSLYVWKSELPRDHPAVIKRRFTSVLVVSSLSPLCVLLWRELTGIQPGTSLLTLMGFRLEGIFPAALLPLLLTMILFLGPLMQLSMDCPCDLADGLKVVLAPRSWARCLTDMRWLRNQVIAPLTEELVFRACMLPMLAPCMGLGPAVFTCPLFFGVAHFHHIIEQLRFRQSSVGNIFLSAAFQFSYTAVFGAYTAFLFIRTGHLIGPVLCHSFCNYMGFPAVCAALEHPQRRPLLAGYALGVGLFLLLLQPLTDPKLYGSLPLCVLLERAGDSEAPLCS
T3 sequence (P11940 whole entry): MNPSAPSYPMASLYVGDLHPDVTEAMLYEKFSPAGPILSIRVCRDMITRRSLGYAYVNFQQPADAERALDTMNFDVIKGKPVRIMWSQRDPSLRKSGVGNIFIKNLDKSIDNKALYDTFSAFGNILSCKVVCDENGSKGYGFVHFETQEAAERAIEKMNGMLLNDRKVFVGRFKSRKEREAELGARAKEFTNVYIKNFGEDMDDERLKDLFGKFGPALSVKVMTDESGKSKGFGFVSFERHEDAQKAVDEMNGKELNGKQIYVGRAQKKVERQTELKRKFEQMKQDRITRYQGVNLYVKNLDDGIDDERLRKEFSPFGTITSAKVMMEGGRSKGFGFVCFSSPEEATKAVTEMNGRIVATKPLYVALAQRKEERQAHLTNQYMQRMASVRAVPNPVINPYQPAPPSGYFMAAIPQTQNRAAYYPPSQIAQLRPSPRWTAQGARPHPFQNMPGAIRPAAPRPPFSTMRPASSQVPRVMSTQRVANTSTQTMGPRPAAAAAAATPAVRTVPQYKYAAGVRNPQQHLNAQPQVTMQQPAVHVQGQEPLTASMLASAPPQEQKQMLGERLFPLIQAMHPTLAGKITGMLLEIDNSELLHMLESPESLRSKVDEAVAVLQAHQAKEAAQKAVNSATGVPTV
Sequence of Serine/threonine-protein phosphatase (B9W6M3 whole entry): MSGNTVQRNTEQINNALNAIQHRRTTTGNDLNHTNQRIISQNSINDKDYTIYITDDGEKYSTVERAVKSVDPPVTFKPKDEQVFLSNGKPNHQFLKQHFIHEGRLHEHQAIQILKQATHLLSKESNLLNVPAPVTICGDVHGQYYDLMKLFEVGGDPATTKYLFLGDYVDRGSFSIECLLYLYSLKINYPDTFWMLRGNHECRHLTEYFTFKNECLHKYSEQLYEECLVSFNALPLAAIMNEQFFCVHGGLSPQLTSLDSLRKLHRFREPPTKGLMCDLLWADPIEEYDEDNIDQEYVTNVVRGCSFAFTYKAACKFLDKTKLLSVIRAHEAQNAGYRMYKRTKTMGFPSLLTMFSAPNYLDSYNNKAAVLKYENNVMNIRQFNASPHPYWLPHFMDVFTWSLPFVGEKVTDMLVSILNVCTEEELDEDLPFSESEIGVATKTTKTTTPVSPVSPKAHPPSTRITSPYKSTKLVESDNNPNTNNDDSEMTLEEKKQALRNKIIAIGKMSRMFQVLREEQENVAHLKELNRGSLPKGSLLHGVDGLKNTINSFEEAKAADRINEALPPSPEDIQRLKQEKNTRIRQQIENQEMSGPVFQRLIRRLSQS
Sequence of Voltage-gated inwardly rectifying potassium channel KCNH2 (Q12809 whole entry): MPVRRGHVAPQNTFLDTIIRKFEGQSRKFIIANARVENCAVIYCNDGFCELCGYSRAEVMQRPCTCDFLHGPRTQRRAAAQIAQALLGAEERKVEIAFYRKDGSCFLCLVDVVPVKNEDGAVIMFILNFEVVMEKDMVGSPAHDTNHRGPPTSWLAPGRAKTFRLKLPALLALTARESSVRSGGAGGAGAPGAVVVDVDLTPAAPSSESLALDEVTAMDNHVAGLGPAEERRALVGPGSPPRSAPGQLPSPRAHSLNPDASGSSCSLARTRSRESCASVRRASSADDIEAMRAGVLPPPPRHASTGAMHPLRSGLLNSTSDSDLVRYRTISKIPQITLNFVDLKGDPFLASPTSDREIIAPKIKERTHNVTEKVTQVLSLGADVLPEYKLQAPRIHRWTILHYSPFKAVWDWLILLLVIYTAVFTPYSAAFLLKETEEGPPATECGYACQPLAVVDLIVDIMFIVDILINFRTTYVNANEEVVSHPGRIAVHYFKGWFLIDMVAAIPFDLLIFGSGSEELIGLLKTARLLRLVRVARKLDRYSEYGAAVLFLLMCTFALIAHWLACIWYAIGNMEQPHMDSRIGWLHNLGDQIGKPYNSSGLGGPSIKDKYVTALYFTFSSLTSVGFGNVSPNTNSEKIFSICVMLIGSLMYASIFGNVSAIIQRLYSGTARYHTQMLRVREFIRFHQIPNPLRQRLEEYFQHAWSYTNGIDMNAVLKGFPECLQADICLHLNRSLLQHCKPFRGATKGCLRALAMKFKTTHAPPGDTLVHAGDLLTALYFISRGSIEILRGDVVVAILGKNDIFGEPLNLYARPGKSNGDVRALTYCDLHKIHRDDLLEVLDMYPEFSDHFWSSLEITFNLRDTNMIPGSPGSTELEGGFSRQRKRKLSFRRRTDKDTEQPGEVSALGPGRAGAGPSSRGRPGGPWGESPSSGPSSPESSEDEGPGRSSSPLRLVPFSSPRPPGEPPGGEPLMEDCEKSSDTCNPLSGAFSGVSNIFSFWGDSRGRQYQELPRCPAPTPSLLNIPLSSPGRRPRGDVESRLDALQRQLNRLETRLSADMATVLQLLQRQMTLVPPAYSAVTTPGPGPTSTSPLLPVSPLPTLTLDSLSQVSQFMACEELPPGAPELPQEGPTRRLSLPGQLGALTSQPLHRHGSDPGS
Sequence of Cysteine protease ATG4B (Q9Y4P1 whole entry): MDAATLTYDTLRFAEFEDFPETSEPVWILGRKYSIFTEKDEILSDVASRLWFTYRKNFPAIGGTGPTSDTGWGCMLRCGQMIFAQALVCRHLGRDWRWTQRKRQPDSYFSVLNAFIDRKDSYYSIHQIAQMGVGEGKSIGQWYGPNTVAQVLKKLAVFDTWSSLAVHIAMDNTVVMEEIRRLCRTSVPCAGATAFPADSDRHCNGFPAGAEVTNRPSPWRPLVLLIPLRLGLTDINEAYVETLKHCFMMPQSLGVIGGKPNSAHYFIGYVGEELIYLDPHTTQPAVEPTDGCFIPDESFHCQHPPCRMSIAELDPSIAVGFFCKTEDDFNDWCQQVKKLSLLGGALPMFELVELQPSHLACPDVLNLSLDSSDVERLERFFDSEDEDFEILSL
Sequence of Transitional endoplasmic reticulum ATPase (Homo sapiens, UniProt P55072) (P55072 whole entry): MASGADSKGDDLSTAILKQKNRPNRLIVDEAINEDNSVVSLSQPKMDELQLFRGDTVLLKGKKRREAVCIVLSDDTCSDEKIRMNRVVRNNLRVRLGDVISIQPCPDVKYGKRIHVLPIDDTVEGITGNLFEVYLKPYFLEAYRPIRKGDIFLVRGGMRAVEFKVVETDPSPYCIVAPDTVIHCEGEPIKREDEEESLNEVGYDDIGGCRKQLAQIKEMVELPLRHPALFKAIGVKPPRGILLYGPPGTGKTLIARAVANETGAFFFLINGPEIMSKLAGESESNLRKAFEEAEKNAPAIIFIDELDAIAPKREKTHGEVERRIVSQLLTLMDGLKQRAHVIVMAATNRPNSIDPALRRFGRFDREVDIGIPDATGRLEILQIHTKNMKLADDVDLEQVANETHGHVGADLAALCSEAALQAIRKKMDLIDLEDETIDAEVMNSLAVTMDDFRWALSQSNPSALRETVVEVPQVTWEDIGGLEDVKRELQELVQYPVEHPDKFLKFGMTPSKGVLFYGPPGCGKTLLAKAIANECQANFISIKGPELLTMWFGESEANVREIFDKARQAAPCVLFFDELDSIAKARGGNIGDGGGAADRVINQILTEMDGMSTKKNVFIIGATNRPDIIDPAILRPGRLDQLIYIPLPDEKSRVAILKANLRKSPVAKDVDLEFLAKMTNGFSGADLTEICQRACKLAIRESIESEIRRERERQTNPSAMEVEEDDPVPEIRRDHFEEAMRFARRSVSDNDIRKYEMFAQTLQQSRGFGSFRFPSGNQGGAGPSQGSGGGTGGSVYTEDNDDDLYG
Sequence of NS3 (A3EZJ3 whole entry): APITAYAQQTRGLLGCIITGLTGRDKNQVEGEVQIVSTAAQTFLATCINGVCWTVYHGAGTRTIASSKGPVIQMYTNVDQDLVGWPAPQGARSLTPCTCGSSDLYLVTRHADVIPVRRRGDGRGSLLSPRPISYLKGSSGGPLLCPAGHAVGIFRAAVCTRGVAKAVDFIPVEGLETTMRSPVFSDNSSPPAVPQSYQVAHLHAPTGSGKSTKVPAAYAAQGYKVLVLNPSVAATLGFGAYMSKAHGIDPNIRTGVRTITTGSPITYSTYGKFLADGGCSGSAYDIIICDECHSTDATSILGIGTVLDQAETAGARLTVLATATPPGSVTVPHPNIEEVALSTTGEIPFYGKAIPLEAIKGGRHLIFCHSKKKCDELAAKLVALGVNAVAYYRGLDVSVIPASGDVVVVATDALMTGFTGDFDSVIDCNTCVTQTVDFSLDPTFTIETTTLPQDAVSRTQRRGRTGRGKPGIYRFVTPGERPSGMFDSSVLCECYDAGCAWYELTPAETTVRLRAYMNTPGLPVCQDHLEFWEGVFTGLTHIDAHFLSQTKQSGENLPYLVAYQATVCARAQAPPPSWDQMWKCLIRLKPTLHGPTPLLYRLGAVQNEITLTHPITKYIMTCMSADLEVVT

SMILES: NCCNC(=O)c1ncsc1-c1cccc(F)c1
- AC50 [1]: 35.5 µM (inconclusive)

SMILES: C[C@H](NC(=O)c1nc[nH]c1C(=O)N[C@@H](C)C(=O)OCc1ccccc1)C(=O)OCc1ccccc1
- IC50 (Jurkat [2]): 73.6 µM (inactive)
- IC50 [3]: > 80 µM (inactive)

SMILES: COc1cc(C2C(C(=O)c3ccc(C)o3)=C(O)C(=O)N2c2cc(C)on2)ccc1OCc1ccccc1 (stereo not given)
- IC50 (NS3): 2.68 µM (active)
- CC50 [4]: > 100 µM (inactive)

SMILES: CN(C)CCCN(C(=O)c1cc(-c2cccs2)nc2ccccc12)c1nc2ccc(F)cc2s1
- AC50 (CAAX prenyl protease 2 [5]): 49.5 µM (active)
- AC50 (CAAX prenyl protease 2 [6]): 33.6 µM (active)

SMILES: O=C(c1ccc(OC2CCN(C/C=C/c3ccc(F)cc3)CC2)cc1)N1CCCC1
- IC50 (Cysteine protease ATG4B): 11.8 µM (active)
- IC50 (Phospholipase A2): 7.22 µM (active)

SMILES: O=C(c1cccs1)N1CCN(c2ccnc3cc(Cl)ccc23)CC1
- AC50 (Candida albicans [7]): 2.96 µM (active)
- AC50 (Candida albicans [8]): 1.71 µM (active)
- AC50 (Candida albicans [9]): 5.31 µM (active)
- AC50 (NIH3T3): 17.9 µM (active)

SMILES: CCOc1cccc(-c2c(C(=O)N/N=C/c3cccs3)nnn2-c2nonc2N)c1
- AC50 (CAAX prenyl protease 2 [10]): 1.53 µM (active)
- AC50 (CAAX prenyl protease 2 [6]): 37.1 µM (active)
- AC50 (CAAX prenyl protease 2 [11]): 15.3 µM (active)

SMILES: NS(=O)(=O)c1ccc(N/N=C/c2ccc(O)c(O)c2O)c([N+](=O)[O-])c1
- IC50 [12]: > 50 µM (not active)
- IC50 [13]: > 50 µM (not active)
- IC50 [14]: > 80 µM (inactive)
- IC50 (Beta-arrestin-1): 11 µM (active)
- IC50 (Genome polyprotein): 4.59 µM (active)
- IC50 [15]: > 66 µM (inactive)
- IC50 [16]: > 66 µM (inactive)
- AC50 (Caspase-6): 0.351 µM (active)

SMILES: CCCCC(=O)NC(c1ccc(Cl)cc1Cl)c1ccc2cccnc2c1O (stereo not given)
- EC50 [17]: 13.3 µM (active)
- EC50 [18]: 1.29 µM (active)
- EC50 (cells [19]): 8.53 µM (active)
- EC50 [20]: 0.698 µM (active)
- EC50 [21]: 0.126 µM (active)
- EC50 (cells [22]): > 350 µM (not active)
- EC50 [23]: > 180 µM (inactive)
- EC50 [24]: 0.57 µM (active)
- EC50 (Streptococcus): 2.12 µM (active)
- IC50 [25]: > 80 µM (inactive)
- AC50 (HEK293 [26]): 4.57 µM (active)
- IC50 (HEK293 [27]): 26.8 µM (inactive)
- IC50 (Jurkat [28]): 3.7 µM (active)
- IC50 (HEK293 [29]): 3.23 µM (active)
- AC50 (INS1): 0.422 µM (active)
- EC50 [30]: > 150 µM (inactive)
- AC50 [31]: 0.67 µM (active)
- AC50 [32]: > 70 µM (inactive)
- AC50 [33]: 0.861 µM (active)

SMILES: COc1cc(C(=O)O)cc(OC)c1OC [3,4,5-TRIMETHOXYBENZOIC ACID]
- IC50 (HEK293 [34]): > 67.5 µM (inactive)
- IC50 [35]: > 67.5 µM (inactive)
